Key:
Assay in all cases: relative viability (nuclei count vs DMSO), 5 days (fraction); higher = more cells survive
[1] = compound: CCOc1cc2ncc(C#N)c(Nc3ccc(OCc4ccccn4)c(Cl)c3)c2cc1NC(=O)/C=C/CN(C)C [Neratinib]
Summary of the method: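 A plate was accepted only when its control CV was below 25% and the cells had doubled at least once. Viability is defined from nuclear counts as treated wells divided by vehicle wells, with the median taken across plates. That median covers lung cancer cell lines grown in 1536-well plates, dosed by pinning at five √10-spaced library-drug concentrations, and counted in MetaXpress from 4× Hoechst images after 5 days.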

[2] = compound: CCOc1cc2ncc(C#N)c(Nc3ccc(OCc4ccccn4)c(Cl)c3)c2cc1NC(=O)/C=C/CN(C)C [Neratinib] + CC(=O)Nc1cccc(-n2c(=O)n(C3CC3)c(=O)c3c(Nc4ccc(I)cc4F)n(C)c(=O)c(C)c32)c1 [Trametinib] (partner 0.02 µM)
Summary of the method: (§1)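 Lung cancer cell lines were pin-tool dosed in 1536-well plates on the day after seeding, with either a lone drug or a fixed anchor-drug dose plus five library-drug doses (not always all listed) in √10 steps. Nuclei were counted on 4× images after 5 days. Relative viability is the ratio of treated-well to vehicle-well nuclei counts, with each value a median of duplicate plates.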

[3] = compound: CCOc1cc2ncc(C#N)c(Nc3ccc(OCc4ccccn4)c(Cl)c3)c2cc1NC(=O)/C=C/CN(C)C [Neratinib] + COc1cccc2cc(-c3nc([C@H]4CC[C@H](C(=O)O)CC4)n4ncnc(N)c34)[nH]c12 [OSI-027] (partner 0.5 µM)
Summary of the method: as §1

[4] = compound: CCOc1cc2ncc(C#N)c(Nc3ccc(OCc4ccccn4)c(Cl)c3)c2cc1NC(=O)/C=C/CN(C)C [Neratinib] + N=C(N)NC(=N)NCCc1ccccc1 [Phenformin] (partner 250 µM)
Summary of the method: as §1

Row | Cell Line | relative viability ([1]; 0.01 µM) | relative viability ([1]; 0.03162 µM) | relative viability ([1]; 0.1 µM) | relative viability ([1]; 0.3162 µM) | relative viability ([1]; 1 µM) | relative viability ([2]; first compound 0.01 µM) | relative viability ([2]; first compound 0.03162 µM) | relative viability ([2]; first compound 0.1 µM) | relative viability ([2]; first compound 0.3162 µM) | relative viability ([2]; first compound 1 µM) | relative viability ([3]; first compound 0.01 µM) | relative viability ([3]; first compound 0.03162 µM) | relative viability ([3]; first compound 0.1 µM) | relative viability ([3]; first compound 0.3162 µM) | relative viability ([3]; first compound 1 µM) | relative viability ([4]; first compound 0.01 µM) | relative viability ([4]; first compound 0.03162 µM) | relative viability ([4]; first compound 0.1 µM) | relative viability ([4]; first compound 0.3162 µM) | relative viability ([4]; first compound 1 µM)
1 | HCC-78 | 1.07 | 1.03 | 0.892 | 0.87 | 0.475 | 0.901 | 0.668 | 0.678 | 0.731 | 0.296 | 0.387 | 0.333 | 0.354 | 0.27 | 0.296 | 0.724 | 0.731 | 0.624 | 0.545 | 0.296
2 | HCC-366 | 1.05 | 1.1 |  | 1.01 |  | 0.428 | 0.396 | 0.342 | 0.322 | 0.205 | 1.1 | 0.949 | 0.785 | 0.803 | 0.163 | 0.631 | 0.617 | 0.611 | 0.626 | 0.547
3 | HCC-827 | 1.09 | 1.13 | 0.982 | 0.679 | 0.183 | 0.426 | 0.545 | 0.561 | 0.226 | 0.153 | 0.81 | 0.774 | 0.721 | 0.508 | 0.16 | 0.42 | 0.411 | 0.403 | 0.23 | 0.151
4 | HOP-62 | 1.02 | 1.15 | 0.934 | 0.914 | 1.09 | 0.408 | 0.4 | 0.337 |  | 0.405 | 0.849 | 0.914 | 0.799 | 0.776 | 0.775 | 0.716 | 0.702 | 0.621 | 0.585 | 0.617
5 | IA-LM | 1.03 | 1.04 | 0.943 | 0.881 | 0.562 |  |  |  |  |  |  |  |  |  |  |  |  |  |  | 
6 | LC-2-ad | 1.01 | 1.03 | 0.915 | 0.738 | 0.797 | 0.98 | 0.933 | 0.805 | 0.845 | 0.85 | 0.831 | 0.877 | 0.749 | 0.518 | 0.383 |  | 0.578 | 0.557 | 0.421 | 0.45
7 | LCLC-97TM1 | 1.05 | 1.08 | 0.955 | 0.689 | 0.696 | 0.187 | 0.193 | 0.192 |  | 0.112 | 0.615 | 0.537 | 0.547 | 0.346 | 0.27 | 0.461 | 0.462 | 0.379 | 0.29 | 0.177
8 | LCLC-103H | 0.996 | 0.997 | 0.897 | 1.07 | 0.989 | 0.739 | 0.733 | 0.618 | 0.681 | 0.639 | 0.562 | 0.48 | 0.47 | 0.463 | 0.394 | 0.353 | 0.344 | 0.34 | 0.293 | 0.293
9 | LK-2 | 1.12 | 1.05 | 0.988 | 0.718 | 0.499 | 0.948 | 0.714 | 0.851 | 0.501 | 0.34 | 0.189 | 0.227 | 0.217 | 0.189 | 0.182 | 0.467 | 0.418 | 0.518 | 0.287 | 0.318
10 | LOU-NH91 | 0.988 | 0.92 | 0.796 | 0.691 | 0.676 | 0.795 | 0.746 | 0.698 | 0.67 | 0.597 | 0.706 | 0.715 | 0.471 | 0.46 | 0.408 | 0.664 | 0.634 | 0.525 | 0.426 | 0.412
11 | LU99A | 0.948 | 1.04 | 0.908 | 0.891 | 0.646 | 0.578 |  | 0.515 | 0.527 | 0.43 | 0.287 | 0.311 | 0.292 | 0.288 | 0.26 | 0.92 | 0.905 | 0.87 | 0.801 | 0.683
12 | LXF-289 | 1.03 | 1.07 | 0.948 | 1.05 | 1.01 | 0.739 | 0.733 | 0.674 | 0.685 | 0.536 | 0.876 | 0.875 | 0.777 | 0.759 | 0.542 | 0.533 | 0.537 | 0.461 | 0.476 | 0.435
13 | NCI-H23 | 1.1 | 1.15 | 0.811 | 0.922 | 0.739 | 0.397 | 0.401 | 0.35 | 0.342 | 0.251 | 0.717 | 0.664 | 0.561 | 0.504 | 0.296 | 0.959 | 0.905 | 0.827 | 0.731 | 0.597
14 | NCI-H322M | 0.956 | 0.926 | 0.784 | 0.491 | 0.288 | 0.519 | 0.486 | 0.506 | 0.488 | 0.373 | 0.515 | 0.592 | 0.519 | 0.365 | 0.307 | 0.762 | 0.671 | 0.671 | 0.376 | 0.283
15 | NCI-H358 | 0.949 | 0.792 | 0.556 | 0.275 | 0.242 | 0.119 | 0.118 | 0.0959 | 0.121 | 0.125 | 0.65 | 0.514 | 0.275 | 0.117 | 0.107 | 0.28 | 0.266 | 0.164 | 0.147 | 0.101
16 | NCI-H1299 | 1.01 |  | 0.89 | 1.03 | 1.06 |  |  |  |  |  |  |  |  |  |  |  |  |  |  | 
17 | NCI-H1563 | 1.03 | 1.07 | 0.915 | 0.864 | 0.706 |  |  |  |  |  | 0.806 | 0.725 | 0.732 | 0.67 | 0.575 | 0.727 | 0.643 | 0.568 | 0.628 | 0.409
18 | NCI-H1648 | 0.819 | 0.931 | 0.657 | 0.383 | 0.432 | 0.449 | 0.402 | 0.276 | 0.262 | 0.335 | 0.297 | 0.265 | 0.303 | 0.305 | 0.278 |  |  |  |  | 
19 | NCI-H1703 | 1.16 | 0.951 | 0.909 | 0.778 | 0.388 |  |  |  |  |  |  |  |  |  |  |  |  |  |  | 

From the supplement of paper PMC10307832
